Experimental data published in publication PMC12325182, “Discovery of novel and potent celastrol derivatives as PRDX1 inhibitors for cancer therapy through structure-based virtual screening” (Frontiers in Pharmacology, 2025).

Tests used:
[1] = target: T1, PRDX1 (Homo sapiens, UniProt Q06830); assay: MST assay; assay type: binding; conditions: MST; mean ± SD, n = 3; read-out: PRDX1 (Kd)
T1 sequence (Q06830 1-199): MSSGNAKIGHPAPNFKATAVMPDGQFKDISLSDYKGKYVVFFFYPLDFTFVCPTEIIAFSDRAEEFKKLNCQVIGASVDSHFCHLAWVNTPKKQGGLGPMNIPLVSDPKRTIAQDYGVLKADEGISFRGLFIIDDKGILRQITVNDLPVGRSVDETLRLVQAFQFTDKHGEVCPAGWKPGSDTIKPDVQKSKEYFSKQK
Experimental: The MST assays were carried out in a buffer composed of 50 mM Tris, 200 mM NaCl, and 0.1% (v/v) TWEEN20. PRDX1 was tagged with the MO-L011 protein labeling kit (RED-NHS second Generation). The diluted compounds were combined with the tagged PRDX1 protein and allowed to stand at room temperature for 5 minutes. Subsequently, the reaction mixture was loaded into capillaries, and measurements were taken using a Monolith NT.115 instrument.

[2] = system: LO2 (normal liver cells); assay: MTT assay; assay type: cell-based; conditions: Homo sapiens; MTT, 72 h; normal cells; mean ± SD, n = 3; read-out: IC50 (μM) LO2
Experimental: Cells were seeded in 96-well plates at 5 ×10^4 cells/well and cultured overnight at 37°C under 5% CO2. After medium removal, cells were treated with serially diluted compounds (0.04–163.84 μM) or vehicle control (0.1% DMSO) and incubated for 72 h. Subsequently, 20 μL of MTT solution (5 mg/mL) was added to each well, and incubation was continued for 4 h. Add 150 μL of DMSO and shake for 10 min to fully dissolve the crystal. Finally, the absorbance was measured at 570 nm using a microplate reader. Cell viability was calculated as (ODcompound - ODblank)/(ODvehicle - ODblank) × 100%. The half inhibitory concentration (IC50) was calculated from the dose-response curve using Prism 8.0 software. Three independent replicate experiments were performed.

In the case of `CC1=C(CC(=O)/C=C/c2cccc(CO)c2)C(=O)C=C2C1=CC=C1[C@@]2(C)CC[C@@]2(C)C3C[C@](C)(C(=O)CCc4nc(C(O)C(O)O)c(C)nc4C)CC[C@]3(C)CC[C@]12C` (some centres unmarked) [CP1], the Kd [1] is reported as 0.06 ± 0.001 nM and the IC50 [2] is reported as greater than 100 µM.
